The target of one test is T1, 5-LOX (Homo sapiens, UniProt P09917).
T1 construct: purchased MyBioSource
T1 sequence (P09917 1-674): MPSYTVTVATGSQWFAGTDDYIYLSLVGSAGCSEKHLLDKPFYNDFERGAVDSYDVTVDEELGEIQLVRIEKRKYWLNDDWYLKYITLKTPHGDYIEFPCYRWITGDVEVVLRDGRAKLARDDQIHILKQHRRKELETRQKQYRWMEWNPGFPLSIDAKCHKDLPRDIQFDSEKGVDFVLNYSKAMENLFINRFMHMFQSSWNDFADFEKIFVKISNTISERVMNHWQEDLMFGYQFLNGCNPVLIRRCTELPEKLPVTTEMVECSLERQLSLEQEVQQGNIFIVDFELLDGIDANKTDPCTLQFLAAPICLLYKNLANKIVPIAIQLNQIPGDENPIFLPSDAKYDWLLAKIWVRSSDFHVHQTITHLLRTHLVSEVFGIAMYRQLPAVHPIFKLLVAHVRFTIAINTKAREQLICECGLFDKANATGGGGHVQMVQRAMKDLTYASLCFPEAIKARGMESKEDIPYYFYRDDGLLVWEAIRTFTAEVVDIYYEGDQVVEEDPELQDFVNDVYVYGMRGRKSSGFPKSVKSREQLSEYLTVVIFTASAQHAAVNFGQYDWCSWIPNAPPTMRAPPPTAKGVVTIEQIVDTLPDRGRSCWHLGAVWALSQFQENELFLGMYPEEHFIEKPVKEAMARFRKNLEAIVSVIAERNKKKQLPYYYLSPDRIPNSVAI
Kind of test: Fluorometric 5-LOX inhibitor screening kit. The format is biochemical. The following applies: for 5-LOX Percent of İnhibition: at 10 µM. As to the method:
COX-1 and COX-2 inhibitory activities were tested using fluorometric COX-1 and COX-2 inhibitor screening kits (Abcam, United Kingdom), and the 5-LOX inhibitory activity was tested using a fluorometric 5-LOX inhibitor screening kit (MyBioSource, USA). These assays are based on the fluorometric detection of Prostaglandin G2 (a product generated by the COX enzyme) or on the fluorometric detection of the intermediate generated by the 5-LOX enzyme. The experiments were conducted in accordance with the manufacturers’ instructions.
For the determination of 5-LOX inhibitory activity, tested compounds were dissolved in DMSO (5 mM stock solution) and then diluted with the same solvent to obtain the test solutions. Test solutions were added to wells in an amount of 2 µL in the final 100 µL reaction volume. […] EC, SC, IC, and all test solutions were analyzed in triplicate.

Another test deals with T2, COX-1 (Ovis aries, UniProt P05979).
T2 sequence (P05979 25-600): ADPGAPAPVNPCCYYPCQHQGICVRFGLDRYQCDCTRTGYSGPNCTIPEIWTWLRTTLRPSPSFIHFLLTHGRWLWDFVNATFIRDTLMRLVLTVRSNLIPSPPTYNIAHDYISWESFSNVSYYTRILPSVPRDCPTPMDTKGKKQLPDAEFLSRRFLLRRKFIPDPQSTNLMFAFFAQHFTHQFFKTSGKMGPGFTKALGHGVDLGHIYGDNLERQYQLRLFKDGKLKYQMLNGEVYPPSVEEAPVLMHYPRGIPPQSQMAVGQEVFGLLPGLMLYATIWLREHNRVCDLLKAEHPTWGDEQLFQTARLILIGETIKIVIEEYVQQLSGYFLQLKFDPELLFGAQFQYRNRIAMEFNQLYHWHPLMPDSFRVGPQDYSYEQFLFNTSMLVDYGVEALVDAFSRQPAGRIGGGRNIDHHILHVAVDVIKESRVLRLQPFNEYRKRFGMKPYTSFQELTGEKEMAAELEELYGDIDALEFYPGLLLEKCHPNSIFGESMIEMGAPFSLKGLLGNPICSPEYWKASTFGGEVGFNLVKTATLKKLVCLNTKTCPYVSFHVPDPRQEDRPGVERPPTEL
Put plainly: Fluorometric COX-1 inhibitor screening kit.

Here are results for five compounds from paper PMC10223062, “Discovery of Novel Thiophene/Hydrazones: In Vitro and In Silico Studies against Pancreatic Cancer” (Pharmaceutics, 2023).

Protocol for COX-1: For the determination of COX-1 and COX-2 inhibitory activity, the tested compounds were dissolved in dimethyl sulfoxide (DMSO, 5 mM stock solution) and then diluted with the same solvent to obtain the test solutions. The test solutions were further diluted 5× with COX Assay Buffer (2 µL of test solution: 8 µL COX Assay Buffer). […] Solvent Control (SC) was prepared by adding 2 µL DMSO and 8 µL COX Assay Buffer, while Sample (S) and Enzyme Control (EC) were prepared by adding 10 µL of diluted test solution and COX Assay Buffer, respectively, into assigned wells.

Usually IC50 stands for the concentration at which inhibition is half-maximal. As for `O=C(N/N=C/c1ccccc1O)c1cc(-c2ccccc2)c(-c2ccccc2)s1` [7a, N’-[(E)-(2-hydroxyphenyl)methylidene]-4,5-diphenylthiophene-2-carbohydrazide], on 5-LOX, the midpoint of inhibition, the IC50, lay at 3.78 ± 0.39 µM and the “5-LOX Percent of İnhibition” value was determined as 64.38 ± 0.46%.

As for `O=C(N/N=C/c1ccc(O)cc1)c1cc(-c2ccccc2)c(-c2ccccc2)s1` [7c, N’-[(E)-(4-hydroxyphenyl)methylidene]-4,5-diphenylthiophene-2-carbohydrazide], at 5-LOX, the concentration for half-maximal inhibition (IC50) was found to be 2.6 ± 0.11 µM and the “5-LOX Percent of İnhibition” value is listed as 55.05 ± 1.37%. Also, the IC50 at COX-1 is more than 100 µM.

As for `COc1ccccc1/C=N/NC(=O)c1cc(-c2ccccc2)c(-c2ccccc2)s1` [7d, N’-[(E)-(2-methoxyphenyl)methylidene]-4,5-diphenylthiophene-2-carbohydrazide], the “5-LOX Percent of İnhibition” value on 5-LOX is 15.61 ± 0.66%.

As for `COc1cc(/C=N/NC(=O)c2cc(-c3ccccc3)c(-c3ccccc3)s2)ccc1O` [7e, N’-[(E)-(3-methoxy-4-hydroxyphenyl)methylidene]-4,5-diphenylthiophene-2-carbohydrazide], at 5-LOX, the IC50 came to 3.3 ± 0.07 µM and the “5-LOX Percent of İnhibition” value is on record as 60.69 ± 0.54%. The IC50 against COX-1 is more than 100 µM.

Regarding `COc1ccc(/C=N/NC(=O)c2cc(-c3ccccc3)c(-c3ccccc3)s2)cc1O` [7f, N’-[(E)-(3-hydroxy-4-methoxyphenyl)methylidene]-4,5-diphenylthiophene-2-carbohydrazide], on 5-LOX, half-maximal inhibition (IC50) required 2.94 ± 0.2 µM and the “5-LOX Percent of İnhibition” value is recorded as 60.56 ± 2.49%. In addition, at COX-1, the IC50 is more than 100 µM.
